Drawing on patent US6602864B1, “Sulfonic acid or sulfonylamino N-(heteroaralkyl)-azaheterocyclylamide compounds” (Aventis Pharma Deutschland GmbH, priority 1996, dated 2003), this text covers IC50 for 1 compound.

Counter-ions that a name gives are not always drawn.

The assay deals with Factor Xa (Homo sapiens, UniProt P00742). The experiment in a line: Enzyme assay with purified enzyme and peptide-p-nitroanilide substrate (IC50, apparent Ki). Particulars: library product after deprotection with 20% TFA; read-out: IC50 against Factor Xa. The format is biochemical. How it is done: All enzyme assays are carried out at room temperature in 96-well microtiter plates using a final enzyme concentration of 1 nM. The concentrations of factor Xa and thrombin are determined by active site titration and the concentrations of all other enzymes are based on the protein concentration supplied by the manufacturer. Compounds according to the invention are dissolved in DMSO, diluted with their respective buffers and assayed at a maximal final DMSO concentration of 1.25%. Compound dilutions are added to wells containing buffer and enzyme and pre-equilibrated for […]. The enzyme reactions are initiated by the addition of substrate and the color developed from the hydrolysis of the peptide-p-nitroanilide substrates is monitored continuously for 5 minutes at 405 nm on a Vmax microplate reader (Molecular Devices). Under these conditions, less than 10% of the substrate is utilized in all assays. […] The apparent Ki values are then determined according to the Cheng-Prusoff equation (IC50=Ki [1+[S]/Km]) assuming competitive inhibition kinetics.
Sequence of Factor Xa (P00742 235-488 limits assumed): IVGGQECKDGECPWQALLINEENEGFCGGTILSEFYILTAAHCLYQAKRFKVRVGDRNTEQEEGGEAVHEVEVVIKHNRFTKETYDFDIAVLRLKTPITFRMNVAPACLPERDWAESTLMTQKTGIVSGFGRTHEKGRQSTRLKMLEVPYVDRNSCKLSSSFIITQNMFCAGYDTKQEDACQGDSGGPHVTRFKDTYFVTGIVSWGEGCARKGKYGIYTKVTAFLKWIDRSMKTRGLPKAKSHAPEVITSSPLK
Sequence of Factor Xa (P00742 41-179 partner limits assumed): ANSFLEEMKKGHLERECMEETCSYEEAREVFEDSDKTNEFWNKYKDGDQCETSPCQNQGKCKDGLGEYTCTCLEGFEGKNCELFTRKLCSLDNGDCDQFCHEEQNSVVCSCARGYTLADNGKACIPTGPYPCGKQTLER

Turning to `O=C1[C@@H](NS(=O)(=O)c2cc3ccc(Cl)cc3s2)CCN1Cc1cc2ncccc2[nH]1` [Example 46, 6-Chloro-benzo[b]thiophene-2-sulfonic Acid [2-oxo-1-(1H-Pyrrolo[3,2-b]pyridin-2-ylmethyl)-pyrrolidin-3-(S)-yl]-amide Trifluoroacetate], the IC50 is less than 500 nM.

Usually IC50 stands for the concentration that inhibits the measured activity by half.
